16 compounds from patent US7879884B2, “Aryl pyridyl sulfonamide derivatives, their manufacture and use as pharmaceutical agents” (Hoffmann-La Roche Inc., priority 2007, dated 2011) can be followed below.

The test system of this test is HCT 116 cells. The test can be described thus: CellTiter-Glo Luminescent Cell Viability Assay in HCT 116 cells. To be noted: HCT 116 human colon carcinoma cells, 5 days (120 h) incubation, CellTiter-Glo luminescence, triplicate. It counts as cell-based. From the text:
CellTiter-Glo™ Assay in HCT 116 Cells
The CellTiter-Glo™ Luminescent Cell Viability Assay (Promega) is a homogeneous method of determining the number of viable cells in culture based on quantitation of the ATP present, which signals the presence of metabolically active cells.
HCT 116 cells (human colon carcinoma, ATCC-No. CCI-247) were cultivated in RPMI 1640 medium with GlutaMAX™ I (Invitrogen, Cat-No. 61870-010), 5% Fetal Calf Serum (FCS, Sigma Cat-No. F4135 (FBS)); 100 Units/ml penicillin/[…] streptomycin (=Pen/Strep from Invitrogen Cat. No. 15140).
For the assay the cells were seeded in 384 well plates, 1000 cells per well, in the same medium. The next day the test compounds were added in various concentrations ranging from 30 μM to 0.0015 μM (10 concentrations, 1:3 diluted). After 5 days the CellTiter-Glo™ assay was done according to the instructions of the manufacturer (CellTiter-Glo™ Luminescent Cell Viability Assay, from Promega). In brief: the cell-plate was equilibrated to room temperature for approximately 30 minutes and than the CellTiter-Glo™ reagent was added. The contents were carefully mixed for 15 minutes to induce cell lysis. After 45 minutes the luminescent signal was measured in Victor 2, (scanning multiwell spectrophotometer, Wallac).
• Medium: RPMI 1640 with GlutaMAX™ I (Invitrogen, Cat-Nr. 61870), 5% FCS (Sigma Cat.-No. F4135), Pen/Strep (Invitrogen, Cat No. 15140). • HCT116 (ATCC-No. CCI-247): 1000 cells in 60 μl per well of 384 well plate (Greiner 781098, μClear-plate white) • After seeding incubate plates 24 h at 37° C., 5% CO2 2nd. day: Induction (Treatment with Compounds, 10 Concentrations):
In order to achieve a final concentration of 30 μM as highest concentration 3.5 μl of 10 mM compound stock solution were added directly to 163 μl media. Then step e) of the dilution procedure described below, was followed.
As for `COc1cccc(OC)c1-c1ccc(S(=O)(=O)NC(=O)c2ccc(Cl)cc2Cl)cn1` [Example 1-1, 6-(2,6-Dimethoxy-phenyl)-pyridine-3-sulfonic acid 2,4-dichloro-benzoylamide], it took 1430 nM to reach half-maximal inhibition (IC50).
Next, `COc1cccc(OC)c1-c1ccc(S(=O)(=O)NC(=O)c2ccc(F)cc2Cl)cn1` [Example 1-2, 6-(2,6-Dimethoxy-phenyl)-pyridine-3-sulfonic acid 2-chloro-4-fluoro-benzoylamide]: 500 to 7500 nM; `COc1cccc(OC)c1-c1ccc(S(=O)(=O)NC(=O)c2ccc(F)cc2C(F)(F)F)cn1` [Example 1-3, 6-(2,6-Dimethoxy-phenyl)-pyridine-3-sulfonic acid 4-fluoro-2-trifluoromethyl-benzoylamide]: 500 to 7500 nM.
Next, `COc1cc(Cl)ccc1C(=O)NS(=O)(=O)c1ccc(-c2c(OC)cccc2OC)nc1` [Example 1-4, 6-(2,6-Dimethoxy-phenyl)-pyridine-3-sulfonic acid 4-chloro-2-methoxy-benzoylamide]: 500 to 7500 nM.
The result for `COc1cc(Cl)ccc1C(=O)NS(=O)(=O)c1ccc(-c2c(C)cc(C)cc2C)nc1` [Example 1-5, 6-(2,4,6-Trimethyl-phenyl)-pyridine-3-sulfonic acid 4-chloro-2-methoxy-benzoylamide] reads 500 to 7500 nM.
Take `COc1cc(Cl)ccc1C(=O)NS(=O)(=O)c1ccc(-c2c(C)cccc2C)nc1` [Example 1-6, 6-(2,6-Dimethyl-phenyl)-pyridine-3-sulfonic acid 4-chloro-2-methoxy-benzoylamide]: the IC50 is 500 to 7500 nM.
The compound `CSc1ccccc1-c1ccc(S(=O)(=O)NC(=O)c2ccc(Cl)cc2Cl)cn1` [Example 1-7, 6-(2-Methylsulfanyl-phenyl)-pyridine-3-sulfonic acid 2,4-dichloro-benzoylamide] had an IC50 of 500 to 7500 nM.
The result for `CS(=O)(=O)c1ccccc1-c1ccc(S(=O)(=O)NC(=O)c2ccc(Cl)cc2Cl)cn1` [Example 1-8, 6-(2-Methanesulfonyl-phenyl)-pyridine-3-sulfonic acid 2,4-dichloro-benzoylamide] reads 2940 nM; that for `O=C(NS(=O)(=O)c1ccc(-c2ccc(C(F)(F)F)cc2C(F)(F)F)nc1)c1ccc(Cl)cc1Cl` [Example 1-9, 6-(2,4-Bis-trifluoromethyl-phenyl)-pyridine-3-sulfonic acid 2,4-dichloro-benzoylamide], 500 to 7500 nM.
Compound `COc1cccc(F)c1-c1ccc(S(=O)(=O)NC(=O)c2ccc(Cl)cc2Cl)cn1` [Example 1-10, 6-(2-Fluoro-6-methoxy-phenyl)-pyridine-3-sulfonic acid 2,4-dichloro-benzoylamide] displayed an IC50 of 500 to 7500 nM.
Regarding `COc1cc(Cl)ccc1C(=O)NS(=O)(=O)c1ccc(-c2ccccc2NS(C)(=O)=O)nc1` [Example 1-11, 6-(2-Methanesulfonylamino-phenyl)-pyridine-3-sulfonic acid 4-chloro-2-methoxy-benzoylamide], the IC50 lay within 500 to 7500 nM.
`COc1ccccc1-c1ncc(S(=O)(=O)NC(=O)c2ccc(Cl)cc2Cl)cc1C` [Example 1-12, 6-(2-Methoxy-phenyl)-5-methyl-pyridine-3-sulfonic acid 2,4-dichloro-benzoylamide] showed a half-inhibitory concentration (IC50) of 3980 nM.
Next, `COc1ccccc1-c1ncc(S(=O)(=O)NC(=O)c2ccc(F)cc2C(F)(F)F)cc1C` [Example 1-13, 6-(2-Methoxy-phenyl)-5-methyl-pyridine-3-sulfonic acid 4-fluoro-2-trifluoromethyl-benzoylamide]: 500 to 7500 nM; `Cc1cc(S(=O)(=O)NC(=O)c2ccc(F)cc2C(F)(F)F)cnc1-c1ccccc1Cl` [Example 1-14, 6-(2-Chloro-phenyl)-5-methyl-pyridine-3-sulfonic acid 4-fluoro-2-trifluoromethyl-benzoylamide]: 500 to 7500 nM.
Next, `Cc1cc(S(=O)(=O)NC(=O)c2ccc(F)cc2Cl)cnc1-c1ccccc1Cl` [Example 1-15, 6-(2-Chloro-phenyl)-5-methyl-pyridine-3-sulfonic acid 2-chloro-4-fluoro-benzoylamide]: 500 to 7500 nM; `COc1cc(Cl)ccc1C(=O)NS(=O)(=O)c1cnc(-c2ccccc2Cl)c(C)c1` [Example 1-16, 6-(2-Chloro-phenyl)-5-methyl-pyridine-3-sulfonic acid 4-chloro-2-methoxy-benzoylamide]: 500 to 7500 nM.
